# According to patent US20050112573A1, “Method of detecting toxic substance” (priority 2001, published 2005):
# System: yeast genes (level of expressed mRNA)
# Test: DNA chip analysis of expressed mRNA of yeast genes after 2 h culture with a toxic chemical substance
# Assay type: cell-based, Saccharomyces cerevisiae S288C
# Settings: for The level of expressed mRNA in the presence of chemical substance/ (ratio to absence): transport facilitation protein gene; for The level of expressed mRNA in the presence of chemical substance/: ratio to no chemical; for The level of expressed mRNA in the presence of chemical substance/ (ratio to absence of chemical substance): stress protein genes, DNA chip
# Outline: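 S. cerevisiae S288C grown at 25° C in YPD; toxicant added at log phase at growth-inhibitory, non-lethal levels for 2 h, untreated cells as control. Poly(A) mRNA reverse-transcribed with Cy3/Cy5-dUTP, hybridized to whole-genome chip at 65° C >12 h; value is fluorescence ratio versus untreated.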
substance,measurement,setting,value
sodium dodecylbenzosulfonate [(17)],The level of expressed mRNA in the presence of chemical substance/ (ratio to absence),yeast gene YKL188C,1.1
same,The level of expressed mRNA in the presence of chemical substance/ (ratio to absence),yeast gene YKL192C,1.0
same,The level of expressed mRNA in the presence of chemical substance/The level of expressed mRNA in the absence of chemical substance,yeast gene YKL193C,1.2
same,The level of expressed mRNA in the presence of chemical substance/ (ratio to absence),yeast gene YKL209C,1.1
same,The level of expressed mRNA in the presence of chemical substance/ (ratio to absence),yeast gene YKL217W,1.7
same,The level of expressed mRNA in the presence of chemical substance/in the absence of chemical substance,yeast gene YKL218C,2.5
same,The level of expressed mRNA in the presence of chemical substance/ (ratio to absence),yeast gene YKL221W,0.8
same,The level of expressed mRNA in the presence of chemical substance/,yeast gene YKR007W,0.8
same,"The level of expressed mRNA in the presence of chemical substance/ (in its absence), gene YKR009C","yeast gene YKR009C, ratio of DNA chip fluorescence intensity to that without chemical substance",1.9
same,The level of expressed mRNA in the presence of chemical substance/,yeast gene YKR020W,1.3
same,"The level of expressed mRNA in the presence of chemical substance/ (in its absence), gene YKR034W","yeast gene YKR034W, ratio of DNA chip fluorescence intensity to that without chemical substance",0.8
same,The level of expressed mRNA in the presence of chemical substance/ (ratio to absence),yeast gene YKR039W,0.9
same,The level of expressed mRNA in the presence of chemical substance/ (ratio to absence of chemical substance),yeast gene YKR053C,2.8
same,"The level of expressed mRNA in the presence of chemical substance/ in its absence, gene YKR058W","yeast gene YKR058W, energy system protein genes, 2 h culture with the chemical, ratio to control without chemical",0.8
same,The level of expressed mRNA in the presence of chemical substance/,yeast gene YKR071C,0.9
same,The level of expressed mRNA in the presence of chemical substance/in the absence of chemical substance,yeast gene YKR097W,1.1
same,The level of expressed mRNA in the presence of chemical substance/ (ratio to absence),yeast gene YKR105C,0.8
same,The level of expressed mRNA in the presence of chemical substance/ (ratio to absence),yeast gene YKR106W,0.9
same,The level of expressed mRNA in the presence of chemical substance/,yeast gene YLL025W,1.0
same,The level of expressed mRNA in the presence of chemical substance/ (ratio to absence),yeast gene YLL028W,1.2
same,The level of expressed mRNA in the presence of chemical substance/ (ratio to absence),yeast gene YLL055W,1.1
same,The level of expressed mRNA in the presence of chemical substance/ (ratio to absence),yeast gene YLL061W,0.6
same,The level of expressed mRNA in the presence of chemical substance/,yeast gene YLL062C,0.9
same,"The level of expressed mRNA in the presence of chemical substance/ (in its absence), gene YLR006C","yeast gene YLR006C, ratio of DNA chip fluorescence intensity to that without chemical substance",1.6
same,The level of expressed mRNA in the presence of chemical substance/ (ratio to absence of chemical substance),yeast gene YLR006C,1.6
same,The level of expressed mRNA in the presence of chemical substance/in the absence of chemical substance,yeast gene YLR027C,1.3
same,The level of expressed mRNA in the presence of chemical substance/ (ratio to absence),yeast gene YLR092W,1.0
same,The level of expressed mRNA in the presence of chemical substance/,yeast gene YLR108C,1.0
same,The level of expressed mRNA in the presence of chemical substance/The level of expressed mRNA in the absence of chemical substance,yeast gene YLR120C,3.5
same,The level of expressed mRNA in the presence of chemical substance/in the absence of chemical substance,yeast gene YLR133W,1.1
same,The level of expressed mRNA in the presence of chemical substance/The level of expressed mRNA in the absence of chemical substance,yeast gene YLR136C,1.8
same,The level of expressed mRNA in the presence of chemical substance/,yeast gene YLR145W,1.0
same,The level of expressed mRNA in the presence of chemical substance/in the absence of chemical substance,yeast gene YLR155C,1.4
same,The level of expressed mRNA in the presence of chemical substance/,yeast gene YLR156W,1.1
same,The level of expressed mRNA in the presence of chemical substance/in the absence of chemical substance,yeast gene YLR158C,1.4
same,The level of expressed mRNA in the presence of chemical substance/The level of expressed mRNA in the absence of chemical substance,yeast gene YLR178C,2.0
same,The level of expressed mRNA in the presence of chemical substance/in the absence of chemical substance,yeast gene YLR195C,0.9
same,The level of expressed mRNA in the presence of chemical substance/,yeast gene YLR247C,1.2
same,The level of expressed mRNA in the presence of chemical substance/The level of expressed mRNA in the absence of chemical substance,yeast gene YLR250W,1.4
same,The level of expressed mRNA in the presence of chemical substance/,yeast gene YLR267W,1.2
same,The level of expressed mRNA in the presence of chemical substance/,yeast gene YLR280C,1.2
same,The level of expressed mRNA in the presence of chemical substance/,yeast gene YLR290C,1.3
same,"The level of expressed mRNA in the presence of chemical substance/ in its absence, gene YLR295C","yeast gene YLR295C, energy system protein genes, 2 h culture with the chemical, ratio to control without chemical",0.9
same,"The level of expressed mRNA in the presence of chemical substance/ (ratio to absence), gene YLR295C","yeast gene YLR295C, mitochondria-located protein genes, 2 h culture with chemical",0.9
same,The level of expressed mRNA in the presence of chemical substance/in the absence of chemical substance,yeast gene YLR303W,1.5
same,The level of expressed mRNA in the presence of chemical substance/,yeast gene YLR311C,1.3
same,The level of expressed mRNA in the presence of chemical substance/The level of expressed mRNA in the absence of chemical substance,yeast gene YLR327C,3.3
same,The level of expressed mRNA in the presence of chemical substance/in the absence of chemical substance,yeast gene YLR345W,1.2
same,The level of expressed mRNA in the presence of chemical substance/ (ratio to absence),yeast gene YLR348C,1.1
same,"The level of expressed mRNA in the presence of chemical substance/ (in its absence), gene YLR351C","yeast gene YLR351C, ratio of DNA chip fluorescence intensity to that without chemical substance",1.3
same,The level of expressed mRNA in the presence of chemical substance/The level of expressed mRNA in the absence of chemical substance,yeast gene YLR356W,1.1
same,The level of expressed mRNA in the presence of chemical substance/The level of expressed mRNA in the absence of chemical substance,yeast gene YLR362W,1.2
same,"The level of expressed mRNA in the presence of chemical substance/ (in its absence), gene YLR375W","yeast gene YLR375W, ratio of DNA chip fluorescence intensity to that without chemical substance",1.0
same,The level of expressed mRNA in the presence of chemical substance/ (ratio to absence),yeast gene YLR378C,0.9
same,The level of expressed mRNA in the presence of chemical substance/The level of expressed mRNA in the absence of chemical substance,yeast gene YLR391W,1.4
same,The level of expressed mRNA in the presence of chemical substance/The level of expressed mRNA in the absence of chemical substance,yeast gene YLR429W,1.0
same,The level of expressed mRNA in the presence of chemical substance/in the absence of chemical substance,yeast gene YML004C,1.5
same,The level of expressed mRNA in the presence of chemical substance/,yeast gene YML068W,1.0
same,The level of expressed mRNA in the presence of chemical substance/ (ratio to absence),yeast gene YML116W,1.0
same,"The level of expressed mRNA in the presence of chemical substance/ in its absence, gene YML129C","yeast gene YML129C, energy system protein genes, 2 h culture with the chemical, ratio to control without chemical",1.3
same,"The level of expressed mRNA in the presence of chemical substance/ (ratio to absence), gene YML129C","yeast gene YML129C, mitochondria-located protein genes, 2 h culture with chemical",1.3
same,The level of expressed mRNA in the presence of chemical substance/in the absence of chemical substance,yeast gene YML131W,2.5
same,The level of expressed mRNA in the presence of chemical substance/The level of expressed mRNA in the absence of chemical substance,yeast gene YMR004W,0.9
same,"The level of expressed mRNA in the presence of chemical substance/ (ratio to absence), gene YMR023C","yeast gene YMR023C, mitochondria-located protein genes, 2 h culture with chemical",1.1
same,The level of expressed mRNA in the presence of chemical substance/,yeast gene YMR034C,1.8
same,The level of expressed mRNA in the presence of chemical substance/,yeast gene YMR041C,0.8
same,The level of expressed mRNA in the presence of chemical substance/ (ratio to absence),yeast gene YMR056C,1.0
same,The level of expressed mRNA in the presence of chemical substance/ (ratio to absence),yeast gene YMR058W,0.6
same,The level of expressed mRNA in the presence of chemical substance/The level of expressed mRNA in the absence of chemical substance,yeast gene YMR094W,1.0
same,The level of expressed mRNA in the presence of chemical substance/The level of expressed mRNA in the absence of chemical substance,yeast gene YMR104C,2.8
same,The level of expressed mRNA in the presence of chemical substance/,yeast gene YMR178W,1.1
same,The level of expressed mRNA in the presence of chemical substance/ (ratio to absence of chemical substance),yeast gene YMR186W,0.7
same,The level of expressed mRNA in the presence of chemical substance/ (ratio to absence),yeast gene YMR203W,0.8
same,The level of expressed mRNA in the presence of chemical substance/The level of expressed mRNA in the absence of chemical substance,yeast gene YMR219W,1.1
same,The level of expressed mRNA in the presence of chemical substance/The level of expressed mRNA in the absence of chemical substance,yeast gene YMR226C,1.6
same,The level of expressed mRNA in the presence of chemical substance/,yeast gene YMR253C,1.2
same,"The level of expressed mRNA in the presence of chemical substance/ in its absence, gene YMR267W","yeast gene YMR267W, energy system protein genes, 2 h culture with the chemical, ratio to control without chemical",0.9
same,"The level of expressed mRNA in the presence of chemical substance/ (ratio to absence), gene YMR267W","yeast gene YMR267W, mitochondria-located protein genes, 2 h culture with chemical",0.9
same,"The level of expressed mRNA in the presence of chemical substance/ in its absence, gene YMR267W","yeast gene YMR267W, ratio of DNA chip fluorescence intensity to that without chemical substance",0.9
same,The level of expressed mRNA in the presence of chemical substance/The level of expressed mRNA in the absence of chemical substance,yeast gene YMR275C,0.9
same,The level of expressed mRNA in the presence of chemical substance/The level of expressed mRNA in the absence of chemical substance,yeast gene YMR276W,1.2
same,"The level of expressed mRNA in the presence of chemical substance/ (in its absence), gene YMR278W","yeast gene YMR278W, ratio of DNA chip fluorescence intensity to that without chemical substance",1.0
same,"The level of expressed mRNA in the presence of chemical substance/ (in its absence), gene YMR293C","yeast gene YMR293C, ratio of DNA chip fluorescence intensity to that without chemical substance",0.8
same,The level of expressed mRNA in the presence of chemical substance/The level of expressed mRNA in the absence of chemical substance,yeast gene YMR314W,1.3
same,The level of expressed mRNA in the presence of chemical substance/The level of expressed mRNA in the absence of chemical substance,yeast gene YNL006W,1.0
same,The level of expressed mRNA in the presence of chemical substance/The level of expressed mRNA in the absence of chemical substance,yeast gene YNL007C,1.1
same,"The level of expressed mRNA in the presence of chemical substance/ (in its absence), gene YNL025C","yeast gene YNL025C, ratio of DNA chip fluorescence intensity to that without chemical substance",0.7
same,The level of expressed mRNA in the presence of chemical substance/ (ratio to absence),yeast gene YNL055C,1.2
same,The level of expressed mRNA in the presence of chemical substance/ (ratio to absence of chemical substance),yeast gene YNL064C,0.7
same,The level of expressed mRNA in the presence of chemical substance/in the absence of chemical substance,yeast gene YNL071W,1.0
same,"The level of expressed mRNA in the presence of chemical substance/ (ratio to absence), gene YNL073W","yeast gene YNL073W, mitochondria-located protein genes, 2 h culture with chemical",0.8
same,The level of expressed mRNA in the presence of chemical substance/The level of expressed mRNA in the absence of chemical substance,yeast gene YNL093W,3.0
same,The level of expressed mRNA in the presence of chemical substance/,yeast gene YNL122C,1.0
same,The level of expressed mRNA in the presence of chemical substance/ (ratio to absence),yeast gene YNL142W,1.0
same,"The level of expressed mRNA in the presence of chemical substance/ (in its absence), gene YNL192W","yeast gene YNL192W, ratio of DNA chip fluorescence intensity to that without chemical substance",2.3
